According to ChEMBL document CHEMBL1201862, “PubChem BioAssay data set” (2004):
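Interpolation was linear, between the two tested concentrations surrounding the appropriate level; five concentrations were tested over 48 hours in 96-well plates. The concentration for 50% growth inhibition is given as GI50.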 Calls of active or inactive are those of the source. No stated cut-off is given here; in the data, active = GI50 up to about 1.1 µM and inactive = higher.

Key:
Assay in all cases: NCI tumour cell line growth inhibition, 48 h
[1] = test system: A498
[2] = test system: CCRF-CEM
[3] = test system: SF-539
[4] = test system: CAKI-1
[5] = test system: SK-MEL-2
[6] = test system: RPMI-8226
[7] = test system: 786-0
[8] = test system: SF-295
[9] = test system: ACHN
[10] = test system: TK-10
[11] = test system: SN12C
[12] = test system: DLD-1
[13] = test system: IGROV-1
[14] = test system: Malme-3M
[15] = test system: M14
[16] = test system: SK-MEL-5
[17] = test system: UACC-62
[18] = test system: HCC 2998
[19] = test system: HCT-116
[20] = test system: UO-31
[21] = test system: DMS-273
[22] = test system: SW-620
[23] = test system: RXF 631
[24] = test system: NCI-H460
[25] = test system: OVCAR-4
[26] = test system: K562
[27] = test system: LOX IMVI
[28] = test system: SK-MEL-28
[29] = test system: KM12
[30] = test system: U-251
[31] = test system: OVCAR-8
[32] = test system: RXF 393
[33] = test system: SK-OV-3
[34] = test system: A549
[35] = test system: SF-268
[36] = test system: KM-20L2
[37] = test system: HOP-18
[38] = test system: SNB-78
[39] = test system: NCI-H226
[40] = test system: OVCAR-5
[41] = test system: HOP-62
[42] = test system: NCI-H23
[43] = test system: HCT-15
[44] = test system: HT-29
[45] = test system: SNB-19
[46] = test system: M19-MEL
[47] = test system: LXFL 529
[48] = test system: XF498
[49] = test system: DMS-114
[50] = test system: EKVX
[51] = test system: MOLT-4
[52] = test system: OVCAR-3
[53] = test system: HL-60
[54] = test system: NCI-H522
[55] = test system: SNB-75
[56] = test system: UACC-257
[57] = test system: COLO 205

Measured: GI50

COC(=O)c1nc(-c2ccc(Cl)c(Cl)c2)nc2ccccc12
> 100 µM: [43]
inactive: [1] 27.4 µM | [2] > 100 µM | [3] 24.2 µM | [4] 44.3 µM | [5] 71.8 µM | [6] > 28.9 µM | [7] 21.6 µM | [8] 12 µM | [9] 50.5 µM | [10] 34.6 µM | [11] > 100 µM | [12] > 25.2 µM | [13] 48.9 µM | [14] > 100 µM | [15] > 24.1 µM | [16] > 35.8 µM | [17] > 27.7 µM | [18] > 100 µM | [19] 13.1 µM | [20] 43.4 µM | [21] 26.2 µM | [22] > 21 µM | [23] > 67.6 µM | [24] > 34 µM | [25] 7.83 µM | [26] > 100 µM | [27] > 100 µM | [28] > 59.3 µM | [29] > 85.7 µM | [30] 21.2 µM | [31] 14.5 µM | [32] 13.6 µM | [33] 9.91 µM | [34] 34.9 µM | [35] 6.81 µM | [36] > 100 µM | [37] 2.01 µM | [38] 34.4 µM | [39] 13.7 µM | [40] > 100 µM | [41] 14.3 µM | [42] 57.9 µM | [44] > 100 µM | [45] 5.89 µM | [46] > 100 µM | [47] > 27.1 µM | [48] 6.81 µM | [49] 19.8 µM | [50] > 100 µM | [51] > 100 µM | [52] 14.5 µM | [53] > 100 µM | [54] > 100 µM | [55] 5.04 µM | [56] > 29.6 µM

C=CC/N=C1\NC(=O)C(CC(=O)Nc2ccc(C)cc2)S1 (stereo not given)
> 100 µM: [43]
inactive: [1] > 100 µM | [2] > 100 µM | [3] > 100 µM | [4] > 100 µM | [5] > 100 µM | [6] > 100 µM | [7] > 100 µM | [8] > 100 µM | [9] > 100 µM | [10] > 100 µM | [11] > 100 µM | [12] > 100 µM | [57] > 100 µM | [13] > 100 µM | [14] > 100 µM | [15] > 100 µM | [16] > 100 µM | [17] > 100 µM | [18] > 100 µM | [20] > 100 µM | [21] > 100 µM | [22] > 100 µM | [23] > 100 µM | [24] > 100 µM | [25] > 100 µM | [26] > 100 µM | [27] > 100 µM | [28] > 100 µM | [29] > 100 µM | [30] > 100 µM | [31] > 100 µM | [32] > 100 µM | [33] > 100 µM | [34] > 100 µM | [35] > 100 µM | [36] > 100 µM | [37] > 100 µM | [39] > 100 µM | [40] > 100 µM | [41] > 100 µM | [42] > 100 µM | [44] > 100 µM | [45] > 100 µM | [46] > 100 µM | [47] > 100 µM | [48] > 100 µM | [49] > 100 µM | [50] > 100 µM | [51] > 100 µM | [52] > 100 µM | [53] > 100 µM | [54] > 100 µM | [55] > 100 µM
